# Assay results taken from article PMC8536644, “Enigmatic mechanism of the N-vinylpyrrolidone hepatocarcinogenicity in the rat” (Archives of Toxicology, 2021).
# Where “and” joins values, the source holds several entries; their conditions need not be identical. Identical values can stand only once.
# Tests used:
# [1] = tested on: rat lung cells; experiment: Comet assay, conventional (no FPG), lung; conditions: no FPG; for Increase of the TI vs vehicle control / Hedgehogs/100 cells (mean ± SD) / TI (%) (mean ± SD) / TI (%), mean of medians from 2 slides: lung; for Increase of the TI vs vehicle control: p ≤ 0.01; for Hedgehogs/100 cells (mean ± SD) / TI (%) (mean ± SD) / TI (%), mean of medians from 2 slides: 200 mg/kg bw oral, once; for TI (%), mean of medians from 2 slides: individual animals
# Method: (§1) Animals were anesthetized by 3.5% isoflurane (approximately 3 min, evaporator Dräger Vapor 19.3) and then killed by cervical dislocation. The liver was removed and its left lateral lobe used for the Comet assay. The remainder of the liver was washed in saline and then in two aliquots shock frozen in liquid nitrogen and stored at − 80 °C for later examinations. Subsequently the lung was removed from the dead animal. Its left lobe was used for the Comet assay and the remainder treated as described above for the liver. Thereafter the femora were removed for the preparation of the bone marrow.
# (§2) The Comet assay was performed under alkaline conditions according to the principles described by Singh et al. ([1988]) and Tice et al. ([2000]).
# (§3) Liver and lung cells were obtained essentially as described by Hartmann et al. ([2004]) and by the Japanese Center for the Validation of Alternative Methods (JaCVAM [2009]). Single cells were obtained within 1 h after killing of the animals in order to minimize DNA damage during the preparation.
# (§4) The organ parts (see above) were washed in mincing buffer (50 mM EDTA in HBSS [without Ca^2+ and Mg^2+] pH 7.5: DMSO 9:1 (v/v), the latter added shortly before use, stored at 4 °C), cut into 1 to 2-mm pieces in ice-cold mincing buffer and transferred to a cell sieve with 70-µm pores. The viability of the cell suspension was evaluated by the Trypan Blue Assay (Strober [2001]).
# (§5) 100 µL of the obtained cell suspension was mixed at 37 °C with 900 µL Low Melting Agarose (LMA) (0.7% agarose in phosphate-buffered saline [PBS] [Biochrom, Berlin, Germany] without Ca^2+ and Mg^2+). 100 µL of this mixture was transferred to a slide, which had been coated with Normal Melting Agarose (NMA) (0.6% agarose in PBS without Ca^2+ and Mg^2+). The slides were protected with a cover slip and the agarose was hardened at approximately 4 °C. The cover slips were then removed and the slides put over night at 4 °C into lysis buffer (2.5 M NaCl, 125 mM NaOH, 127 mM EDTA, 10 mM Tris/NaOH, pH 10; 1% Triton X-100 and 10% DMSO (v/v), the latter two added before use) in order to lyse the cell membrane, nuclear membrane and remove the histone.
# (§6) The then following procedures were performed in a shaded room to minimize UV-mediated DNA damage during the procedures.
# (§7) Remaining lysis buffer or FPG buffer was removed by immersing/washing the slides in PBS (without Ca^2+ and Mg^2+).
# The slides were then placed into the electrophoresis chamber, which was cooled and protected from light. Slides were covered with electrophoresis buffer (0.3 M NaOH, 1 mM EDTA, pH > 13) carefully avoiding air bubbles. The DNA was allowed to unwind (20 min). Thereafter the electrophoresis was started (25 V, 300 mA, […], 30 min). The slides were then washed (2 times 5 min) in neutralization buffer (0.4 M Tris/HCl, pH 7.5), dehydrated and fixed in 100% ethanol (1 min), dried at room temperature overnight and stored at room temperature protected from dust.
# Quantitative evaluation of the Comet assays was performed by fluorescence microscopy after DNA staining with ethidium bromide.
# [2] = tested on: polychromatic erythrocytes of rat bone marrow; experiment: Micronucleus test in rat bone marrow (OECD 474); conditions: for MN/ 1000 PCE Mean ± SD / MN/ 1000 PCE Range / PCE/1000 Erythrozyten Mean ± SD / PCE/NCE quotient (%): 200 mg/kg body weight oral
# Method: 13-mm filter disks with a pore size of 8 µm were placed on the bottom of 5-mL plastic syringes. Approximately 500 mg of a mixture consisting of equal parts microcrystalline cellulose (Sigmacell®, Typ 50) and alpha-cellulose fibers was added up to the 2-mL mark.
# Bone marrow preparation was performed according to published methods (Romagna and Staniforth [1989]; Salamone et al. [1980]). The soft tissue was removed from the femora and the epiphyses were cut off. The bone marrow was rinsed off the diaphyses with approximately 3 mL 37 °C-warm fetal calf serum (FCS) (Biochrom, Berlin, Germany) per femur, placed on the above-described cellulose column and eluted with 3 mL of Hank's Balanced Salt Solution (HBSS) (Biochrom, Berlin, Germany) (with Ca^2+ und Mg^2+). The eluate was centrifuged at 300 g for 5 min and the pellet was suspended in […] FCS. From this suspension three portions per femur were individually placed on slides, air-dried and then stained for 4 min in May-Grunwald solution 1 (Merck, Darmstadt, Germany), followed by 4 min in May–Grunwald solution 2 (May-Grunwald solution 1 diluted 1:1 with aqua bidest.), rinsed in aqua bidest and then stained with Giemsa solution (7.5% dilution derived from Giemsa obtained from Merck, Darmstadt, Germany) for 15 min. Subsequently, the slides were washed twice with aqua bidest, then dried, cleared in xylene and covered with Corbit-Balsam (I. Hecht, Kiel-Hasse, Germany).
# 2000 polychromatic erythrocytes (PCE) per animal (1000 per slide) were evaluated at 1000-fold magnification under immersion oil for the presence/absence of large and small micronuclei as well as the proportion of PCE among the total erythrocytes. Statistical significance of differences between treated versus untreated groups was evaluated by the one-sided Wilcoxon test (using the program MUKERN). The result is regarded as positive when the following criteria are fulfilled: 1.
# 2000 PCEs were analyzed for micronuclei per animal.
# [3] = tested on: rat liver cells; experiment: Comet assay in presence of FPG, liver; conditions: in presence of FPG, 200 mg/kg
# Method: as §1, §2, §3, §4, §5, §6
# Those slides which were destined to be treated with the DNA base excision repair enzyme FPG (Sigma Aldrich, Steinheim, Germany) were washed (3 times for 5 min) with FPG buffer (0.04 M HEPES, 0.5 mM EDTA, 0.1 M KCl, pH 8; add shortly before use bovine serum albumin [BSA] to a final concentration of 0.02%). Subsequently 50 µL FPG-enzyme-buffer (prepared shortly prior to use by 30-fold dilution of the following suspension in FPG buffer: 7 µL FPG-enzyme (14 U) and 70 µL glycerol in 623 µL FPG-Puffer, stored at − 80 °C) was pipetted on the slide which was covered with a cover slide and incubated for 30 min at 37 °C while being placed on a humid filter paper. After hardening of the agarose cover slips were removed.
# as §7
smiles,measurement,setting,value
"CCOS(C)(=O)=O [EMS, ethyl methanesulfonate, reference compound]","Hedgehogs per 100 cells, averaged for both genders","[1]; lung cells, 200 mg/kg",9 per 100 cells
same,Increase of the TI vs vehicle control,"[1]; female, 200 mg/kg",21 fold
same,Hedgehogs/100 cells (mean ± SD),[1]; female,9 ± 5 /100 cells
same,TI (%) (mean ± SD),[1]; female,16.7 ± 2.83%
same,"TI (%), mean of medians from 2 slides","[1]; female, 200 mg/kg",13.2% and 13.0% and 18.7% and 18.8% and 17.8%
same,Increase of the TI vs vehicle control,"[1]; male, 200 mg/kg",17 fold
same,Hedgehogs/100 cells (mean ± SD),[1]; male,9 ± 4 /100 cells
same,TI (%) (mean ± SD),[1]; male,19.3 ± 5.15%
same,"TI (%), mean of medians from 2 slides","[1]; male, 200 mg/kg",20.7% and 14.6% and 26.5% and 13.1% and 23.3% and 17.8%
same,MN/ 1000 PCE Mean ± SD,[2]; female,11.8 ± 12.3 MN/ 1000 PCE
same,MN/ 1000 PCE Range,[2]; female,9.0–14.5 MN/ 1000 PCE
same,PCE/1000 Erythrozyten Mean ± SD,[2]; female,563 ± 29 PCE/1000 Erythrozyten
same,PCE/NCE quotient (%),[2]; female,89%
same,MN/ 1000 PCE Mean ± SD,[2]; male,14.5 ± 6.0 MN/ 1000 PCE
same,MN/ 1000 PCE Range,[2]; male,3.0–20.0 MN/ 1000 PCE
same,PCE/1000 Erythrozyten Mean ± SD,[2]; male,616 ± 50 PCE/1000 Erythrozyten
same,PCE/NCE quotient (%),[2]; male,101%
same,Micronuclei in PCE,"[2]; 200 mg/kg body weight, independent of gender",13.2 ± 4.6 ‰
same,Micronuclei in PCE,"[2]; female, Wistar Crl:WI (Han), rat, in vivo, 24 h",11.8 ± 2.3 ‰
same,Micronuclei in PCE,"[2]; male, Wistar Crl:WI (Han), rat, in vivo, 24 h",14.5 ± 6.0 ‰
same,Comets seen in presence of FPG,[3],only hedgehogs were seen
same,TI in presence of FPG (image analysis),[3],marked increase
